# Measured values as given in patent publication US20170082611A1, “Methods for Inhibiting Epithelial to Mesenchymal Transition by Inhibition of FOXS1” (Regenerative Research Foundation, priority 2015, published 2017).
# Legend:
# RPE cells [1] = experiment: Effect of NAM in the TNT-induced EMT model, qPCR; format: cell-based, human; conditions: 10 mM NAM
# Procedure: In a parallel experiment, the effect of NAM was tested in an EMT model. EMT was induced in RPE cells using 10 ng/ml TGFβ1 and TNFα. RPE cells were trypsinized and passaged into a 24 well plate. 24 hours after passaging, RPE cells were treated with TGFβ1 and TNFα (TNT condition) for 7 days. To test the effect of NAM, we added 10 mM NAM or vehicle to the medium used for EMT model (using TNT). EMT associated protein transcripts including FOXS1 were analyzed by qPCR.
# Primary human RPE lines = experiment: qPCR of EMT and RPE fate transcripts in primary RPE cultured with NAM for 21 days; format: cell-based; conditions: 10 mM NAM, versus vehicle
# Procedure: Cadaver donor globes were received from the National Disease Research Interchange (Philadelphia, Pa., USA), and RPE cells were isolated and grown to establish a RPE monolayer (Blenkinsop et al., (2015), Investigative Ophthalmology & Visual Science 56, 7085-7099; Blenkinsop et al., (2013), Methods Mol Biol 945, 45-65.). Primary human RPE lines were cultured in the presence of Nicotinamide (NAM) (Cat. #N0636; Sigma) at a concentration of 10 mM or vehicle (cell culture grade water) for 21 days. […] Additionally, RPE fate associated protein transcripts were tested by qPCR.
# RPE cells [2] = experiment: FOXS1 expression in EMT+p38 inhibitor condition; format: cell-based, human; conditions: TnT + p38 inhibitor, 5 days
# RPE cells [3] = experiment: p38 blockade in TnT-induced RPE EMT (masses and EMT transcripts); format: cell-based, human; conditions: TnT + 10 ng/ml SB202190, 5 days
# Procedure: It was next reasoned that, if p38 is involved in the TnT-induced gene changes observed in SNAIL, SLUG and TWIST transcripts, then blocking p38 should result in the loss of TnT-induced EMT changes. Therefore an experiment was conducted to examine RPE-EMT with an additional condition of TnT+the p38 inhibitor SB202190.
# RPE cells [4] = experiment: Screening assay for agents that induce EMT: RPE morphology by light microscope; format: cell-based, human; conditions: 10 ng/ml, 5 days, DMEM/F12 with 5% FBS
# Procedure: RPE were plated at a confluency of 30,000 cells in 1 well of a 24-well plate in DMEM/F12 with 5% FBS, adding TGFβ (10 ng/ml) or TNFα (10 ng/ml), or both. After 5 days, RPE morphology was assessed by a light microscope.
# [5] = test system: hTERT HMEnt (HME) breast epithelial cell line; experiment: EMT and FOXS1 transcripts in breast epithelial cells
# p38 = p38 immunostaining (localization) in RPE cells; conditions: DMEM 5% FBS, 5 days
compound,measurement,setting,value
"NC(=O)c1cccnc1 [NAM, Nicotinamide]",EMT marker SNAIL,RPE cells [1]; as early as day 1 post induction of EMT,inhibited
same,EMT marker FOXS1,RPE cells [1]; by day 3 post induction of EMT,clear inhibition
same,EMT marker SLUG,RPE cells [1]; by day 5 post induction of EMT,clear inhibition
same,EMT associated marker FOXS1,Primary human RPE lines,inhibited
same,EMT associated marker SNAIL,Primary human RPE lines,inhibited
same,RPE marker BEST1 expression,Primary human RPE lines,increased expression
same,RPE marker RPE65 expression,Primary human RPE lines,increased expression
Oc1ccc(-c2nc(-c3ccncc3)c(-c3ccc(F)cc3)[nH]2)cc1 [SB202190],FOXS1 gene transcription,RPE cells [2],"elevated in the TnT condition, but not when the p38 inhibitor was added"
same,SLUG transcription,RPE cells [3],stayed at or near control levels
same,SNAIL transcription,RPE cells [3],stayed at or near control levels
same,TWIST transcription,RPE cells [3],stayed at or near control levels
same,growth of three dimensional masses,RPE cells [3],did not grow
TGFβ: cytokine used at 10 ng/ml to induce EMT,RPE morphology,RPE cells [4],acquired a fibroblastic morphology
same,FOXS1 transcript,[5],increased
same,p38 localization,p38,localized predominantly perinuclearly
TNFα,RPE morphology,RPE cells [4],acquired a fibroblastic morphology
same,p38 localization,p38,found cytoskeletally
